Assay: Emulsion formation of CBD powder in water with emulsifier or co-solvent
Format: physicochemical
Conditions: 200 mg CBD powder, 40 mL water, shaken five minutes
Description: A study was conducted with several different emulsifiers or co-solvents added to water and CBD powder.
In a first experiment, five 50 mL centrifuge tubes were each filled with 40 mL of water and 200 mg of CBD powder. Then, increasing amounts of PEG-400 (65 mg, 130 mg, 195 mg, 260 mg, and 650 mg) were added respectively to each centrifuge tube, which were then placed on a tabletop shaker and mechanically shaken on high for five minutes. […] No emulsion, however, was immediately formed after mixing.
In a second experiment, four 50 mL centrifuge tubes were each filled with 40 mL of water and 200 mg of CBD powder. Then, increasing amounts of TWEEN 80 (160 mg, 320 mg, 800 mg, and 1600 mg) were added respectively to each centrifuge tube, which were then placed on a tabletop shaker and mechanically shaken on high for five minutes. […] Further, CBD powder was still floating around in each tube.
(§1) In a third experiment, four 50 mL centrifuge tubes were each filled with 40 mL of water and 200 mg of CBD powder. Then, increasing amounts of sodium dodecyl sulfate (SDS) (10 mg, 25 mg, 50 mg, and 100 mg) were added respectively to each centrifuge tube, which were then placed on a tabletop shaker and mechanically shaken on high for five minutes. […] Further, CBD residue was observed on the bottom of each tube.
as §1, with “Finally, in” for “In”, “fourth” for “third”, “glycerol monostearate (GMS)” for “sodium dodecyl sulfate (SDS)”, “bottom and sides” for “bottom”

With `C=C(C)[C@@H]1CCC(C)=C[C@H]1c1c(O)cc(CCCCC)cc1O` [CBD powder, cannabidiol] the emulsion formation (GMS 10-100 mg) was “no emulsion was formed in any tube”, the emulsion formation (PEG-400 65-650 mg) was “No emulsion” and the emulsion formation (SDS 10-100 mg) was “no emulsion was formed in any tube”. For the same compound, the emulsion formation (TWEEN 80 160-1600 mg) was “no emulsion was formed in any tube”.

Reference: patent US20230201285A1, “GRANULAR C[…] WATER DISPERSIBLE CANNABINOIDS AND METHODS OF MAKING THE SAME” (priority 2021, published 2023)
